# US20250380696A1, “METHOD FOR CONTROLLING UNDESIRED PLANTS AND PROMOTING GROWTH OF USEFUL PLANTS” (ISHIHARA SANGYO KAISHA, LTD., priority 2022, published 2025)
# Key:
# Assay type in all cases: in vivo
# [1] = test system: Italian ryegrass (Lolium multiflorum); experiment: (1) Herbicidal effect test, pot, spray at 2.3 to 3.0 leaf stage; settings: 6th day after spraying
# Protocol: Upland soil was put in a 1/1,000,000 hectare pot, and seeds of Italian ryegrass (Lolium multiflorum) were sown. When the Italian ryegrass reached 2.3 to 3.0 leaf stage, a water-based suspension containing tiafenacil as the active ingredient, prepared by a conventional method for preparing a water-based suspension, and an emulsifiable concentrate containing S-metolachlor as the active ingredient (tradename: Dual Gold, manufactured by Syngenta), were diluted with water (in an amount corresponding to 200 liter per hectare) containing 0.5 vol % of an agricultural spreader (tradename: Destiny HC, manufactured by Winfield Solutions, LLC.) and sprayed by a small spray gun (model: W-101-132G, manufactured by ANEST IWATA Corporation). On the 6th day after spraying, the state of growth of the Italian ryegrass was visually observed, and the growth inhibition rate (%) was obtained based on the following standards and the results are shown in Table 1.
# Further, the expected value of the growth inhibition rate (%) was calculated in accordance with the following Colby's formula (S. R. Colby, “Weeds”, vol. 15 ([…]), p. 20-22) and the results are also shown in Table 1.
# (§1) [formula] • X: growth inhibition rate when treated with α (g/ha) of compound A, • Y: growth inhibition rate when treated with β (g/ha) of compound B, • E: growth inhibition rate expected when treated with α (g/ha) of compound A and β (g/ha) of compound B (expected value).
# That is, when the growth inhibition rate of the composition of the present invention is higher than E (expected value of growth inhibition rate) calculated by the above formula, the combination can be regarded as having a synergistic effect.
# [2] = test system: Italian ryegrass (Lolium multiflorum); experiment: (3) Herbicidal effect test, pot, spray at 2.8 to 3.2 leaf stage; settings: 7th day after spraying
# From the text: as §1
# Upland soil was put in a 1/1,000,000 hectare pot, and seeds of Italian ryegrass (Lolium multiflorum) were sown. When the Italian ryegrass reached 2.8 to 3.2 leaf stage, a water-based suspension containing tiafenacil as the active ingredient, prepared by a conventional method for preparing a water-based suspension, and an emulsifiable concentrate containing S-metolachlor as the active ingredient (tradename: Dual Gold, manufactured by Syngenta), were diluted with water (in an amount corresponding to 200 liter per hectare) containing 0.5 vol % of an agricultural spreader (tradename: Destiny HC, manufactured by Winfield Solutions, LLC.) and sprayed by a small spray gun (model: W-101-132G, manufactured by ANEST IWATA Corporation). […] Further, the expected value of the growth inhibition rate (%) was calculated in accordance with the Colby's formula described in the above (1) herbicidal effect test, and the results are also shown in Table 3.
# [3] = test system: Italian ryegrass (Lolium multiflorum); experiment: (4) Herbicidal effect test, pot, spray at 2.5 to 3.0 leaf stage; settings: 7th day after spraying
# From the text: as §1
# (§2) Upland soil was put in a 1/1,000,000 hectare pot, and seeds of Italian ryegrass (Lolium multiflorum) were sown. When the Italian ryegrass reached 2.5 to 3.0 leaf stage, a water-based suspension containing tiafenacil as the active ingredient, prepared by a conventional method for preparing a water-based suspension, and a wettable powder containing metribuzin as the active ingredient (tradename: SENCOR wettable powder, manufactured by Bayer Crop Science) were diluted with water (in an amount corresponding to 200 liter per hectare) containing 0.5 vol % of an agricultural spreader (tradename: Destiny HC, manufactured by Winfield Solutions, LLC.) and sprayed by a small spray gun (model: W-101-132G, manufactured by ANEST IWATA Corporation).
# On the 7th day after spraying, the state of growth of the Italian ryegrass was visually observed, and the growth inhibition rate (%) was obtained in accordance with the evaluation standards described in the above (1) herbicidal effect test, and the results are shown in Table 4. Further, the expected value of the growth inhibition rate (%) was calculated in accordance with the Colby's formula described in the above (1) herbicidal effect test, and the results are also shown in Table 4.
# [4] = test system: waterhemp (Amaranthus tuberculatus); experiment: (12) Herbicidal effect test, pot, spray at 6.0 to 8.5 leaf stage; settings: 13th day after spraying
# From the text: as §1
# Upland soil was put in a 1/1,000,000 hectare pot, and seeds of waterhemp (Amaranthus tuberculatus) were sown. When waterhemp reached 6.0 to 8.5 leaf stage, a water-based suspension containing tiafenacil as the active ingredient, prepared by a conventional method for preparing a water-based suspension, and an emulsifiable concentrate containing S-metolachlor as the active ingredient (tradename: Dual Gold, manufactured by Syngenta), a wettable powder containing metribuzin as the active ingredient (tradename: SENCOR wettable powder, manufactured by Bayer Crop Science) or water dispersible granules containing pyroxasulfone as the active ingredient (tradename: Sakura, manufactured by Bayer Crop Science) were diluted with water (in an amount corresponding to 200 liter per hectare) containing 0.5 vol % of an agricultural spreader (tradename: Destiny HC, manufactured by Winfield Solutions, LLC.) and sprayed by a small spray gun (model: W-101-132G, manufactured by ANEST IWATA Corporation). On the 13th day after spraying, the state of growth of the waterhemp was visually observed, and the growth inhibition rate (%) was obtained in accordance with the evaluation standards described in the above (1) herbicidal effect test, and the results are shown in Table 12. Further, the expected value of the growth inhibition rate (%) was calculated in accordance with the Colby's formula described in the above (1) herbicidal effect test, and the results are also shown in Table 12.
# [5] = test system: wheat (cultivar: Norin 61); experiment: (22) Plant growth promotion effect test (wheat), Italian ryegrass sown; settings: 21st day after the sowing, above-ground part
# Protocol: as §2, with “2.8” for “3.0”, “tri-allate” for “metribuzin”, “ingredient, prepared by a conventional method for preparing a” for “ingredient (tradename: SENCOR”, “powder,” for “powder, manufactured by Bayer Crop Science)”, “Corporation). Seeds of wheat (cultivar: Norin 61, manufactured by Asahi Noen Seed Co., Ltd.) were sown in the pot after spraying. On the 21st day after the sowing, the above-ground part of the wheat was reaped, and its weight was measured to obtain the raw weight.” for “Corporation).”
smiles,measurement,setting,value
COC(=O)CCNC(=O)C(C)Sc1cc(-n2c(=O)cc(C(F)(F)F)n(C)c2=O)c(F)cc1Cl (stereo not drawn) [tiafenacil],Growth inhibition rate (%) Measured value,[1]; Dose 12.5 g/ha,75%
same,Growth inhibition rate (%) Measured value,[1]; Dose 25 g/ha,83%
same,Growth inhibition rate (%) Measured value,[2]; Dose 12.5 g/ha,53%
same,Growth inhibition rate (%) Measured value,[3]; Dose 6.25 g/ha,30%
same,Growth inhibition rate (%) Measured value,[4]; Dose 6.25 g/ha,33%
same,Raw weight (g) of wheat,[5]; Dose 3 g/ha,2.2 g
CSc1nnc(C(C)(C)C)c(=O)n1N [metribuzin],inhibition at 9.38 g/ha,"[3]; Lolium multiflorum, Dose 9.38 g/ha, read-out: Growth inhibition rate (%) Measured value",0%
same,inhibition at 275 g/ha,"[3]; Lolium multiflorum, Dose 275 g/ha, read-out: Growth inhibition rate (%) Measured value",45%
same,inhibition at 550 g/ha,"[3]; Lolium multiflorum, Dose 550 g/ha, read-out: Growth inhibition rate (%) Measured value",57%
same,inhibition at 1100 g/ha,"[3]; Lolium multiflorum, Dose 1100 g/ha, read-out: Growth inhibition rate (%) Measured value",88%
same,inhibition at 9.38 g/ha,"[4]; Amaranthus tuberculatus, Dose 9.38 g/ha, read-out: Growth inhibition rate (%) Measured value",5%
same,inhibition at 550 g/ha,"[4]; Amaranthus tuberculatus, Dose 550 g/ha, read-out: Growth inhibition rate (%) Measured value",37%
same,inhibition at 1100 g/ha,"[4]; Amaranthus tuberculatus, Dose 1100 g/ha, read-out: Growth inhibition rate (%) Measured value",50%
CCc1cccc(C)c1N(C(=O)CCl)[C@@H](C)COC [S-metolachlor],Growth inhibition rate (%) Measured value,[1]; Dose 125 g/ha,0%
same,Growth inhibition rate (%) Measured value,[1]; Dose 250 g/ha,1%
same,Growth inhibition rate (%) Measured value,[1]; Dose 375 g/ha,3%
same,Growth inhibition rate (%) Measured value,[1]; Dose 750 g/ha,4%
same,Growth inhibition rate (%) Measured value,[1]; Dose 1500 g/ha,5%
same,Growth inhibition rate (%) Measured value,[1]; Dose 3000 g/ha,5%
same,Growth inhibition rate (%) Measured value,[2]; Dose 15.6 g/ha,0%
same,Growth inhibition rate (%) Measured value,[4]; Dose 7.5 g/ha,0%
same,Growth inhibition rate (%) Measured value,[4]; Dose 375 g/ha,0%
same,Growth inhibition rate (%) Measured value,[4]; Dose 750 g/ha,0%
Cn1nc(C(F)(F)F)c(CS(=O)(=O)C2=NOC(C)(C)C2)c1OC(F)F [pyroxasulfone],inhibition at 7.5 g/ha,"[4]; Amaranthus tuberculatus, Dose 7.5 g/ha, read-out: Growth inhibition rate (%) Measured value",10%
same,inhibition at 250 g/ha,"[4]; Amaranthus tuberculatus, Dose 250 g/ha, read-out: Growth inhibition rate (%) Measured value",17%
same,inhibition at 500 g/ha,"[4]; Amaranthus tuberculatus, Dose 500 g/ha, read-out: Growth inhibition rate (%) Measured value",13%
CC(C)N(C(=O)SCC(Cl)=C(Cl)Cl)C(C)C [tri-allate],Raw weight (g) of wheat,[5]; Dose 200 g/ha,2.3 g
